Tests used:
AR = molecular target: T1, AR (Rattus norvegicus, UniProt P15207)
T1 sequence (P15207 1-902): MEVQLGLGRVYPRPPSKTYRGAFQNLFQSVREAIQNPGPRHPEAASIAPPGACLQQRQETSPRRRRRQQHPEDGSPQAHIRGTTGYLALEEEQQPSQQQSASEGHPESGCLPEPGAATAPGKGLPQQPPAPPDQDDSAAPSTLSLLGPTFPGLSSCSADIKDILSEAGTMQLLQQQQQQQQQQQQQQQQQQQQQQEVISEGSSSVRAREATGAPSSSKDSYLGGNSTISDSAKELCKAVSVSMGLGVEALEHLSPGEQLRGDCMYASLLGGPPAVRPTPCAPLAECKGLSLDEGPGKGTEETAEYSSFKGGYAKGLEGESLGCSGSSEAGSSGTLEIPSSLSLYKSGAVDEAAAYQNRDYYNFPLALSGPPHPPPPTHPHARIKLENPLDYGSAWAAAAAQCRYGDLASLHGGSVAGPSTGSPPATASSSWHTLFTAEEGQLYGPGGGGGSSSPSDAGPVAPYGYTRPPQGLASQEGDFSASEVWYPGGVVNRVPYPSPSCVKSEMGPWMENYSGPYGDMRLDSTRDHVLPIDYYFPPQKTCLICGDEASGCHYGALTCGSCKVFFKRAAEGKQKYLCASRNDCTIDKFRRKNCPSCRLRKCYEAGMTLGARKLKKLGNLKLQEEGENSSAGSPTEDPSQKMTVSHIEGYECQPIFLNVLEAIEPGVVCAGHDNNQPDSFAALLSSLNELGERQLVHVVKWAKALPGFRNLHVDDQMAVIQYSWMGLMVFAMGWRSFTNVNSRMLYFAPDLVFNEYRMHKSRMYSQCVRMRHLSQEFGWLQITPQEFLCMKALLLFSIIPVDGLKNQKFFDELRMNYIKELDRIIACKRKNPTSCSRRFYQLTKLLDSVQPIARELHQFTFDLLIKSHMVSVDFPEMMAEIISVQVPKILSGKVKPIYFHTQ

[1] = test system: wild type AR (MDA 453 cells); conditions: read-out: Kd for [3H]-DHT; MDA 453 cells (wild type AR), Scatchard analysis of specific binding
Experimental: For the saturation analysis, the difference between the total binding and the non-specific binding, is defined as specific binding.
Two replicates are used for each sample. After 4 hours at 37° C., cells are washed, harvested, and counted as described above. […] The K1 values are determined by application of the Cheng-Prusoff equation to the IC50 values, where:
[formula] After correcting for non-specific binding, IC50 values are determined.

Compound | potency relative to free T (AR; TP versus free T, organ weight increase) | EC50 (increase in organ weight, VP and SV) (AR; immature castrated rats, dosed for 3 days) | Kd [1]
CCC(=O)O[C@H]1CC[C@H]2[C@@H]3CCC4=CC(=O)CC[C@]4(C)[C@H]3CC[C@]12C [TP, testosterone propionate] | 10-30 fold | ~0.03 mg | –
tritiated dihydrotestosterone [[^3H]-DHT] | – | – | 0.7 nM

— patent US7776859B2, “Hexahydroimidazopyrazin-3-one compounds useful as modulators of androgen receptor function” (Bristol-Myers Squibb Company, priority 2005, dated 2010)
